From US20250145665A1, “MACROCYCLIC PEPTIDES USEFUL AS MODULATORS OF TNF ALPHA” (Bristol-Myers Squibb Company, priority 2023, published 2025) come the findings set out here.

Starred links: 1 amine or outer side, 2 acyl side, 3 side chain; linkers in the order of their positions; H or OH if unused. Positions of bridges follow the written chain, without caps; N, C: chain ends. Non-standard residues stand in square brackets, D forms with d. Residues, ends and D or L forms follow the SMILES beside them. *: point of attachment. Bip(4'-(3-HOOC-benzamido)) = N[C@@H](Cc1ccc(-c2ccc(NC(=O)c3cccc(C(=O)O)c3)cc2)cc1)C(=O)O; dArg(Nω-CH2C6H4-3-CH2Gua) = N=C(N)NCc1cccc(CNC(=N)NCCC[C@@H](N)C(=O)O)c1; Bip(4'-NH) = O=C([C@H](Cc1ccc(-c2ccc(N[*:3])cc2)cc1)N[*:1])[*:2]; Indazole3carbonyl(1-CH2COOH) = O=C(O)Cn1nc(C(=O)*)c2ccccc21; Bip(4'-COOH) = N[C@@H](Cc1ccc(-c2ccc(C(=O)O)cc2)cc1)C(=O)O; Bip(4'-NHAc) = CC(=O)Nc1ccc(-c2ccc(C[C@H](N)C(=O)O)cc2)cc1; Ala(imidazol-2-yl) = N[C@@H](Cc1ncc[nH]1)C(=O)O; Ala(morpholin-4-yl) = N[C@@H](CN1CCOCC1)C(=O)O; Benzoyl(3-OCH2COOH) = O=C(O)COc1cccc(C(=O)*)c1; X59 = O=C([C@H](Cc1c(F)cc(F)cc1F)N[*:1])[*:2]; Bip = N[C@@H](Cc1ccc(-c2ccccc2)cc1)C(=O)O; Morpholine(3S-CO) = O=C(O)[C@@H]1COCCN1; Phe(4-NH2) = Nc1ccc(C[C@H](N)C(=O)O)cc1; Val(3-OH) = CC(C)(O)[C@H](N)C(=O)O; 2Pal = N[C@@H](Cc1ccccn1)C(=O)O; 3Pal = N[C@@H](Cc1cccnc1)C(=O)O; Tic = O=C(O)[C@@H]1Cc2ccccc2CN1; 2Thi = N[C@@H](Cc1cccs1)C(=O)O; Cha = N[C@@H](CC1CCCCC1)C(=O)O; Sar = CNCC(=O)O

Chain of TNFα (P01375 77-233 limits assumed): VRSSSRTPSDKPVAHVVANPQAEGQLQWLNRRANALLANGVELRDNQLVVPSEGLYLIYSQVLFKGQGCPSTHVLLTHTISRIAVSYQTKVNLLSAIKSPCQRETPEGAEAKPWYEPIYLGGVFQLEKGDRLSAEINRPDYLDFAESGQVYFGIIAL

One experiment concerns the target TNFα (Homo sapiens, UniProt P01375). Nature of the experiment: TNF-Induced HEK-Blue Assay. It is filed as cell-based.
Conditions: not given
Take `CC(C)C[C@@H]1NC(=O)[C@H](Cc2cccs2)NC(=O)[C@H](C(C)C)NC(=O)[C@@H]2CCCN2C(=O)[C@H](C(C)C)NC(=O)[C@@H](CCCNC(=N)NCc2cccc(CNC(=N)N)c2)NC(=O)[C@H](CC(=O)O)NC(=O)[C@H](Cc2ccccn2)NC(=O)CN(C)C(=O)[C@H](Cc2ccc(-c3ccc(NC(=O)c4nn(CC(=O)O)c5ccccc45)cc3)cc2)NC(=O)[C@H](Cc2ccc(-c3ccccc3)cc2)NC(=O)[C@H](CN2CCOCC2)NC(=O)CSC[C@@H](C(=O)NCC(N)=O)NC1=O` [Example 623] ({CH2CO}-[Ala(morpholin-4-yl)][Bip][Bip(4'-NH)](Indazole3carbonyl(1-CH2COOH))[Sar][2Pal]D[dArg(Nω-CH2C6H4-3-CH2Gua)]VPV[2Thi]LCG-NH2; thioether N-13): the IC50 was below 50 nM.

Staying with this experiment, now noted: HEK-Blue-CD40L cells, NF-kB-driven secreted alkaline phosphatase reporter; TNFα 0.5 ng/ml; 18 h; read-out: TNF induced HEK-Blue assay IC50 value.
As for `CC(C)C[C@@H]1NC(=O)[C@H](CCCNC(=N)N)NC(=O)[C@H](C(C)C)NC(=O)CNC(=O)[C@H](C(C)C)NC(=O)[C@H](CCCNC(=N)N)NC(=O)[C@H](CC(=O)O)NC(=O)[C@H](Cc2ccc(O)cc2)NC(=O)CN(C)C(=O)[C@H](Cc2ccc(-c3ccccc3)cc2)NC(=O)[C@H](Cc2ccc(-c3ccccc3)cc2)NC(=O)[C@H](CN2CCOCC2)NC(=O)CSC[C@@H](C(=O)NCC(N)=O)NC1=O` [Example 138] ({CH2CO}-[Ala(morpholin-4-yl)][Bip][Bip][Sar]YDRVGVRLCG-NH2; thioether N-13), the IC50 was in the range of 200 to 2000 nM.

For the molecule `CC(C)C[C@@H]1NC(=O)[C@H](Cc2ccc(O)cc2)NC(=O)[C@H](C(C)C)NC(=O)[C@@H]2CCCN2C(=O)[C@H](C(C)C)NC(=O)[C@@H](CCCNC(=N)N)NC(=O)[C@H](CC(=O)O)NC(=O)[C@H](Cc2ccc(O)cc2)NC(=O)CN(C)C(=O)[C@H](Cc2ccc(-c3ccccc3)cc2)NC(=O)[C@H](Cc2ccc(-c3ccccc3)cc2)NC(=O)[C@H](C(C)(C)O)NC(=O)CSC[C@@H](C(=O)NCC(N)=O)NC1=O` [Example 69] ({CH2CO}-[Val(3-OH)][Bip][Bip][Sar]YD[dR]VPVYLCG-NH2; thioether N-13), the IC50 was below 50 nM.

Take `CC(=O)Nc1ccc(-c2ccc(C[C@@H]3NC(=O)[C@H](Cc4ccc(-c5ccc(C(=O)O)cc5)cc4)NC(=O)[C@H](CN4CCOCC4)NC(=O)CSC[C@@H](C(=O)NCC(N)=O)NC(=O)[C@H](CC(C)C)NC(=O)[C@H](Cc4ncc[nH]4)NC(=O)[C@H](C(C)C)NC(=O)[C@@H]4CCCN4C(=O)[C@H](C(C)C)NC(=O)[C@@H](CCCNC(=N)N)NC(=O)[C@H](CC(=O)O)NC(=O)[C@H](Cc4cccs4)NC(=O)CN(C)C3=O)cc2)cc1` [Example 462] ({CH2CO}-[Ala(morpholin-4-yl)][Bip(4'-COOH)][Bip(4'-NHAc)][Sar][2Thi]D[dR]VPV[Ala(imidazol-2-yl)]LCG-NH2; thioether N-13): the IC50 is below 50 nM.

For `CC(=O)Nc1ccc(-c2ccc(C[C@@H]3NC(=O)[C@H](Cc4ccc(-c5ccc(C(=O)O)cc5)cc4)NC(=O)[C@H](CN4CCOCC4)NC(=O)CSC[C@@H](C(=O)NCC(N)=O)NC(=O)[C@H](CC(C)C)NC(=O)[C@H](Cc4ccc(O)cc4)NC(=O)[C@H](C(C)C)NC(=O)[C@@H]4COCCN4C(=O)[C@H](C(C)C)NC(=O)[C@@H](CCCNC(=N)N)NC(=O)[C@H](CC(=O)O)NC(=O)[C@H](Cc4ccc(O)cc4)NC(=O)CN(C)C3=O)cc2)cc1` [Example 167] ({CH2CO}-[Ala(morpholin-4-yl)][Bip(4'-COOH)][Bip(4'-NHAc)][Sar]YD[dR]V[Morpholine(3S-CO)]VYLCG-NH2; thioether N-13), the IC50 was in the range of 50 to 200 nM.

As for `CC[C@H](C)[C@@H]1NC(=O)[C@@H](CCCNC(=N)N)NC(=O)[C@H](CC(=O)O)NC(=O)[C@H](Cc2cnc[nH]2)NC(=O)CN(C)C(=O)[C@H](Cc2ccc(-c3ccc(NC(=O)c4cccc(C(=O)O)c4)cc3)cc2)NC(=O)[C@H](Cc2ccc(-c3ccc(C(=O)O)cc3)cc2)NC(=O)[C@H](CC2CCCCC2)NC(=O)CSC[C@@H](C(=O)NCC(N)=O)NC(=O)[C@H](CC(C)C)NC(=O)[C@H](Cc2cnc[nH]2)NC(=O)[C@H](C(C)C)NC(=O)[C@@H]2Cc3ccccc3CN2C1=O` [Example 371] ({CH2CO}-[Cha][Bip(4'-COOH)][Bip(4'-(3-HOOC-benzamido))][Sar]HD[dR]I[Tic]VHLCG-NH2; thioether N-13), the IC50 is below 50 nM.

Consider `CC(C)C[C@@H]1NC(=O)[C@H](Cc2ccc(O)cc2)NC(=O)[C@H](C(C)C)NC(=O)CN(C)C(=O)[C@H](C(C)C)NC(=O)[C@H](CCCNC(=N)N)NC(=O)[C@H](CC(=O)O)NC(=O)[C@H](Cc2ccc(O)cc2)NC(=O)CN(C)C(=O)[C@H](Cc2ccc(-c3ccccc3)cc2)NC(=O)[C@H](Cc2ccc(-c3ccccc3)cc2)NC(=O)[C@H](C(C)(C)O)NC(=O)CSC[C@@H](C(=O)NCC(N)=O)NC1=O` [Example 140] ({CH2CO}-[Val(3-OH)][Bip][Bip][Sar]YDRV[Sar]VYLCG-NH2; thioether N-13), for which the IC50 was in the range of 200 to 2000 nM.

As for `CC(C)C[C@@H]1NC(=O)[C@H](CCCNC(=N)N)NC(=O)[C@H](C(C)C)NC(=O)[C@@H]2CCCN2C(=O)[C@H](Cc2cccnc2)NC(=O)[C@H](CCCNC(=N)N)NC(=O)[C@H](CC(=O)O)NC(=O)[C@H](Cc2ccc(O)cc2)NC(=O)CN(C)C(=O)[C@H](Cc2ccc(-c3ccccc3)cc2)NC(=O)[C@H](Cc2ccc(-c3ccccc3)cc2)NC(=O)[C@H](CN2CCOCC2)NC(=O)CSC[C@@H](C(=O)NCC(N)=O)NC1=O` [Example 114] ({CH2CO}-[Ala(morpholin-4-yl)][Bip][Bip][Sar]YDR[3Pal]PVRLCG-NH2; thioether N-13), the IC50 was 200 to 2000 nM.

On to `CC(C)C[C@@H]1NC(=O)[C@H](Cc2cccs2)NC(=O)[C@H](C(C)C)NC(=O)[C@@H]2CCCN2C(=O)[C@H](C(C)C)NC(=O)[C@@H](CCCNC(=N)N)NC(=O)[C@H](CC(=O)O)NC(=O)[C@H](Cc2ccccn2)NC(=O)CN(C)C(=O)[C@H](Cc2ccc(-c3ccc(NC(=O)c4cccc(OCC(=O)O)c4)cc3)cc2)NC(=O)[C@H](Cc2ccc(-c3ccc(C(=O)O)cc3)cc2)NC(=O)[C@H](CC2CCCCC2)NC(=O)CSC[C@@H](C(=O)NCC(N)=O)NC1=O` [Example 614] ({CH2CO}-[Cha][Bip(4'-COOH)][Bip(4'-NH)](Benzoyl(3-OCH2COOH))[Sar][2Pal]D[dR]VPV[2Thi]LCG-NH2; thioether N-13), for which the IC50 lay within 50 to 200 nM.

Take `CC(C)C[C@@H]1NC(=O)[C@H](CCCNC(=N)N)NC(=O)[C@H](C(C)C)NC(=O)[C@@H]2CCCN2C(=O)[C@H](C(C)C)NC(=O)[C@H](CCCNC(=N)N)NC(=O)[C@H](CC(=O)O)NC(=O)[C@@H]2CCCN2C(=O)CN(C)C(=O)[C@H](Cc2ccc(-c3ccccc3)cc2)NC(=O)[C@H](Cc2ccc(-c3ccccc3)cc2)NC(=O)[C@H](Cc2c(F)cc(F)cc2F)NC(=O)CSC[C@@H](C(=O)NCC(N)=O)NC1=O` [Example 31] ({CH2CO}-[X59][Bip][Bip][Sar]PDRVPVRLCG-NH2; thioether N-13): the half-maximal inhibitory concentration (IC50) was in the range of 200 to 2000 nM.

`CC(C)C[C@@H]1NC(=O)[C@H](Cc2ccc(O)cc2)NC(=O)[C@H](C(C)C)NC(=O)[C@@H]2CCCN2C(=O)[C@H](Cc2ccc(N)cc2)NC(=O)[C@H](CCCNC(=N)N)NC(=O)[C@H](CC(=O)O)NC(=O)[C@@H]2CCCN2C(=O)CN(C)C(=O)[C@H](Cc2ccc(-c3ccccc3)cc2)NC(=O)[C@H](Cc2ccc(-c3ccccc3)cc2)NC(=O)[C@H](CN2CCOCC2)NC(=O)CSC[C@@H](C(=O)NCC(N)=O)NC1=O` [Example 113] ({CH2CO}-[Ala(morpholin-4-yl)][Bip][Bip][Sar]PDR[Phe(4-NH2)]PVYLCG-NH2; thioether N-13): the IC50 was 200 to 2000 nM.

What is called IC50 is the concentration that inhibits the measured activity by half.
